In publication PMC3610344, “Differential Cytotoxicity Responses by Dog and Rat Hepatocytes to Phospholipogenic Treatments” (Journal of Toxicology, 2013):
Where two headings read alike, the source gives them in different places.

Experiments:
[1] = test system: dog hepatocytes; assay: Cell survival of primary dog hepatocytes (Cellomics Arrayscan); assay type: cell-based; settings: for IC50: 24 h treatment
Source text: (§1) Primary rat hepatocytes were freshly isolated from Han Wistar rats at AstraZeneca, using the collagenase perfusion method (Selgen, PO, 1976). Primary dog hepatocytes were isolated at AstraZeneca, or purchased from CellzDirect Corp. (Durham, NC), which also uses a collagenase perfusion method. Cells were centrifuged and resuspended in hepatocyte culture media, consisting of Williams E basal media (Sigma-Aldrich, Inc., St. Louis, MO) 5% Hyclone fetal bovine serum (ThermoFisher Scientific Inc., Rockford, IL), 15 mM HEPES (Mediatech Inc., Manassas, VA), 100 units/mL penicillin/streptomycin, 200 μM l-glutamine, 1X ITS (insulin, transferrin, selenium solution from Mediatech Inc.), and 30 nM dexamethasone (Sigma-Aldrich). Cells were suspended at 2.5 × 10^5 cell/mL and added to BD Biocoat collagen I coated microtiter plates at 100 μL/well, for a final count of 25,000 cells/well. Selection criterion for use of initial isolates was 85% minimal viability. Cells were incubated at 37°C in a CO2 incubator for 4 h to allow for cell attachment. Media was aspirated and replaced with hepatocyte culture media without fetal bovine serum and supplemented with 150 μg/mL Matrigel collagen matrix (BD Inc.). Cells were incubated in a CO2 incubator for 24 h, the media was replaced with hepatocyte culture media, and the cells were incubated for an additional 24 h. Compounds were solubilized in DMSO, water, or ethanol to 1000X stock and then diluted to 1X in media. All conditions contained equal concentrations of vehicle.
(§2) In a modification of the procedure described by Morelli et al., hepatocytes were treated with drugs diluted into culture media containing 12 μg/mL NBD-PE (N-(7-nitrobenz-2-oxa-1,3-diazol-4-yl)-1,2-dihexadecanoyl-sn-glycero-3-phosphoethanolamine, triethylammonium salt) for 24 hours. At the end of the treatment period, Sytox orange (100 nM Invitrogen Inc.) was added to cells for 20 minutes prior to fixation. This fluorescent dye stains only cells with compromised cell membranes thereby enabling their exclusion from NBD-PE cell quantitation by the Cellomics ArrayScan instrument. Media were aspirated, cells were washed with 1X PBS and fixed by the addition of 100 μL PBS containing 3.7% formaldehyde, and 1 μg/mL Hoechst dye. Fixation was allowed to proceed for 30 min at RT, and cells were washed three times with 1X PBS, and sealed for imaging. Labeled cells were analyzed using the Cellomics Arrayscan instrument (Cellomics Inc., Pittsburgh, PA) with version 3.5 equipment and software. The ArrayScan captures fluorescent images in the 3 channels relevant to this assay (Hoechst, TRITC for Sytox staining and FITC for NBD-PE staining) and performs automated image analysis to quantify cell nuclei, the number of dead cells, and NBD-PE dye fluorescent intensity. The analysis algorithms that enable cell versus well-based detection were purchased from Cellomics Inc. and are referred to as Cell Health Profiling (CHP) and Target Activation (TA) algorithms. […] NBD-PE peak signal was defined as the maximal response.

[2] = test system: splenocyte; set-up: method as in PMID 16463016; settings: in vitro, tested independently; cited from earlier work
[3] = test system: rat hepatocytes; assay: cells; assay type: cell-based; settings: for IC50: 24 h treatment, read-out: Survival IC50; for % survival: average ± std dev
[4] = test system: dog hepatocytes; assay: NBD-PE accumulation assay in dog hepatocytes; assay type: cell-based; settings: for NBD-PE accumulation, control activity: 300 μM, 24 h, N = 1
Source text: as §1, with “Cells were incubated in a CO2 incubator for 24 h, the media was replaced with hepatocyte culture media, and the cells were incubated for an additional 24 h. Compounds were solubilized in DMSO, water, or ethanol to 1000X stock and then diluted to 1X in media. All conditions contained equal concentrations of vehicle.” left out
In a modification of the procedure described by Morelli et al., hepatocytes were treated with drugs diluted into culture media containing 12 μg/mL NBD-PE (N-(7-nitrobenz-2-oxa-1,3-diazol-4-yl)-1,2-dihexadecanoyl-sn-glycero-3-phosphoethanolamine, triethylammonium salt) for 24 hours. […] This fluorescent dye stains only cells with compromised cell membranes thereby enabling their exclusion from NBD-PE cell quantitation by the Cellomics ArrayScan instrument. […] Labeled cells were analyzed using the Cellomics Arrayscan instrument (Cellomics Inc., Pittsburgh, PA) with version 3.5 equipment and software. The ArrayScan captures fluorescent images in the 3 channels relevant to this assay (Hoechst, TRITC for Sytox staining and FITC for NBD-PE staining) and performs automated image analysis to quantify cell nuclei, the number of dead cells, and NBD-PE dye fluorescent intensity. […]

[5] = test system: rat hepatocytes; assay: NBD-PE accumulation assay in rat hepatocytes; assay type: cell-based, Han Wistar rats; settings: for NBD-PE accumulation, control activity: 300 μM, N = 1
Source text: as §1, §2

[6] = test system: isolated rat mitochondria; set-up: method as in PMID 17917797; settings: cited from earlier work
[7] = test system: rat liver; assay: Preclinical in vivo toxicology studies in rat
[8] = test system: dog liver; assay: Preclinical in vivo toxicology studies in dog
[9] = test system: rat hepatocytes; assay: Acridine orange lysosomal staining time course in rat hepatocytes; assay type: cell-based, Han Wistar rats
[10] = test system: rat hepatocytes; assay: Mitochondrial membrane potential (JC-1 fluorescence) in rat hepatocytes; assay type: cell-based, Han Wistar rats
Source text: as §1
JC-1 was added to cell cultures at a concentration of 5 μg/mL for 30 minutes to allow for cellular accumulation. Media were then aspirated and replaced with fresh media containing drugs of interest without JC-1. Fluorescence was detected using a spectrofluorometer. The ratio of red to green signals was calculated and converted to % control for graphing and analysis.

[11] = Canis lupus familiaris, Hepatocyte, 24 h
[12] = Rattus norvegicus, Hepatocyte, 24 h
[13] = preclinical toxicology studies (1-month for compound A), unpublished observations / data not shown
[14] = 1-month toxicology study, comparable plasma exposures, unpublished observations

SMILES: COc1cc2c(c(N3CCN(C)CC3)c1)O[C@@H](C(=O)Nc1ccc(N3CCOCC3)c(F)c1)CC2 [B]
- IC50 [1, 11]: 153 ± 63 µM
- Phospholipogenic response in splenocyte model [2]: phospholipogenic
- IC50 [3, 12]: > 300 µM

SMILES: CO/C1=C\C(C)=C\[C@@H](C)[C@@H](O)[C@@H](C)C/C(C)=C/C=C/[C@H](OC)[C@@H]([C@@H](C)[C@@H](O)[C@H](C)[C@@]2(O)C[C@@H](O)[C@H](C)[C@@H](C(C)C)O2)OC1=O [Baf, Bafilomycin A1, reference compound]
- Increase in control NBD-PE fluorescent staining ([4]; 100 nM Baf): 2 fold
- Increase in control NBD-PE fluorescent staining ([5]; 100 nM Baf): 2 fold
- Minimal concentration affecting mitochondrial functions (potassium uptake, swelling, loss of membrane potential, uncoupling) [6]: 50 nM

SMILES: O=C(O)Cc1ccccc1Nc1c(Cl)cccc1Cl [Diclofenac, reference compound]
- IC50 [1, 11]: 656 µM
- Phospholipogenic response in splenocyte model [2]: negative
- IC50 [3, 12]: 832 µM

SMILES: CCN(CCO)CCCC(C)Nc1ccnc2cc(Cl)ccc12 (centres unmarked) [Hydroxychloroquine, reference compound]
- IC50 [1]: 159 µM
- IC50 [1, 11]: 90 µM
- IC50 [3]: > 300 µM
- IC50 [3, 12]: 220 µM
- Change in survival ([3]; control condition without Baf, 24 h): 25–35%

SMILES: Cc1ccc(N2CCN(C)CC2)c2c1CC[C@@H](NC(=O)c1ccc(N3CCOCC3)cc1)C2 [NMTMB, N-[(2R)-5-methyl-8-(4-methylpiperazin-1-yl)tetralin-2-yl]-4-morpholino-benzamide]
- Phospholipidosis (PLD) in vivo [7, 13]: confirmed multiorgan in vivo phospholipogenics
- Cells dead ([1]; 50 μM, 24 h): ~ 70%
- Cell death ([1]; 100 μM, 24 hr): complete cell death
- IC50 [1, 11]: 37 ± 13 µM
- NBD-PE accumulation ([5]; 50 μM, 24 h): 4 fold vehicle control
- EC50 ([5]; Hepatocyte, approximate, estimated from left-hand portion of bell-shaped curve): ~65 µM
- Phospholipidosis (PLD) in vivo [8, 13]: confirmed multiorgan in vivo phospholipogenics
- AO spot count ([9]; 100 μM, up to 8 h): maintained or exceeded control levels
- AO spot count ([9]; 300 μM, by 4 h): ~0%
- Decline of AO spot count compared to control ([9]; 300 μM, within 30 minutes): ~50%
- Time to maximum hyperpolarization ([10]; 100 μM): ≤ 2 h
- Time to mitochondria hyperpolarization ([10]; 100 μM): ≤ 1 h
- Mitochondrial polarization status ([10]; 300 μM): mitochondria depolarization was observed within the first hour
- Mitochondrial polarization status with Baf cotreatment ([10]; 300 μM NMTMB plus 30 nM Baf, by 1 h): marked shift from mitochondrial depolarization to a hyperpolarized state
- Drop in cell survival ([3]; 100 μM, 8 h treatment): 40%
- Hepatocytes surviving ([3]; 100 μM, 24 hr): ~ 80%
- % survival ([3]; 300 μM NMTMB alone): 9.3 ± 4%
- % survival ([3]; 300 μM NMTMB cotreated with PADK): 51 ± 8.5%
- Survival compared to control ([3]; 300 μM, 2 h): 20%
- Cell death ([3]; 300 μM, 4 h): cell death was complete
- IC50 [3]: 148 ± 41 µM
- IC50 [3, 12]: 159 µM

SMILES: COc1cc2c(c(N3CCN(C)CC3)c1)O[C@@H](C(=O)Nc1ccc(N3CCOCC3)cc1)CC2 [compound A]
- Centrilobular necrosis of liver [7, 14]: only dog had concomitant centrilobular necrosis
- IC50 ([1]; Canis lupus familiaris, Hepatocyte): 298 ± 22 µM
- Centrilobular necrosis of liver [8, 14]: only dog had concomitant centrilobular necrosis
- IC50 ([3]; Hepatocyte): > 450 µM

SMILES: CCCc1cccc2c(N)c(C(=O)NCC3CC3)nnc12 [compound C]
- NBD-PE accumulation, control activity [4]: 121%
- IC50 [1, 11]: > 300 µM
- NBD-PE accumulation, control activity ([5]; 24 h): 95%
- Phospholipogenic response in splenocyte model [2]: negative
- IC50 [3, 12]: > 300 µM

SMILES: Nc1ccc(N2CCOCC2)cc1 [compound D]
- NBD-PE accumulation, control activity [4]: 140%
- IC50 [1, 11]: > 300 µM
- NBD-PE accumulation, control activity ([5]; 24 h): 101%
- Phospholipogenic response in splenocyte model [2]: negative
- IC50 [3, 12]: > 300 µM
